Measured values published in patent US10473645B2, “Methods for identifying a receptor for a ligand and uses thereof” (UNIVERSITE DE GENEVE, priority 2014, dated 2019).

Tested on: olfr47
Assay: OR transcript level by RT-qPCR after in vivo odorant exposure
Design: species or system mouse; key: The transcript downregulation of 21 out of the 26 olfactory receptor candidates obtained by RNAseq was confirmed by qPCR; false RNAseq positive candidates, namely OR candidates for which in fact mRNA was not downregulated following acetophenone exposure
Conditions: 5% acetophenone exposure
Experimental: In vivo exposure to odorant: Starting 48 h before experiments, mice were habituated to pure DMSO on a cotton ball. 200 μl were pipetted directly onto the cotton and placed in the cage, replacing any cotton that was already in the cage for nest-making purposes.
On the day of the experiment, mice receiving odorants were transferred to a different room, where they were exposed to a cotton ball on which 200 μl of odorant diluted in pure DMSO were deposited. Exposures started in the morning between 8 and 10 am (that is two hours after lights were on) and mice were killed and dissected between 1 and 3 pm. […] If a number of different odorants were tested in the same experiment, a different overpressurized room would always be used for each odorant to avoid odor cross-contamination.
After odorant exposure, mice were killed by cervical dislocation and immediately decapitated. The main olfactory epithelia (MOE), were harvested in their entirety and transferred to a tube containing 600 μl of lysis buffer and β-mercaptoethanol (RNAeasy kit, Qiagen, following the manufacturer protocol) and a 0.5 cm diameter steel ball, and then put on ice. Samples were then homogenized using a FastPrep®-24 instrument (MP Biomedicals) at 6 m/s for 30 s and left on ice. RNA extraction was performed on all samples in parallel using the Qiagen RNeasy Mini® kit following the manufacturer's instructions. Two DNase treatments were performed on all samples: first using the Qiagen RNase-Free DNase Set® and then using the Life Technologies Ambion DNase I® kit. RNA samples were then aliquoted and stored at −80° C.
RNA concentrations were determined using an Amersham Ultrospec® 3100 Pro spectrophotometer, and RNA quality was evaluated with an Agilent Technologies 2100 Bioanalyzer®. Each reverse transcription was performed with 0.5 μg RNA using the Takara Primescript® kit, in a final volume of 10 μl. Primers for reverse transcription were equal mixtures of poly-T nucleotides and random hexamers. Negative controls (omitting the reverse transcriptase enzyme) were performed for each sample. 1/14th of the cDNA preparation was used for each triplicated qPCR reaction.
qPCR Ct values were analyzed using an in-house developed Microsoft Excel® macro file. Triplicate values were compared and outliers (values with a difference higher than 0.5 Ct to their nearest neighbor) were discarded. The number of conditions with an outlying value was always less than 10% of the total number of conditions. Ct values were converted to quantities relative to the maximum for each given gene. Selected reference genes were then analyzed for variance using the geNorm algorithm. All values were normalized with the olfactory tissue-specific genes Omp and Adcy3. β-Actin was used as a non-tissue-specific reference gene to control for differences in dissection between samples.
Mice (n=6) were exposed to 5% acetophenone or to a “neutral” control condition for 5 hours. An olfactory cDNA library corresponding to each animal was deep sequenced and the ratios of odorant receptor mRNA concentrations relative to controls were plotted (FIG. 3). […] Based on transcriptional downregulation levels observed by RNAseq following acetophenone exposure, a list of 26 candidate responsive ORs was determined (FIG. 3), that reached 74% decrease (Olfr145) or even over 80% (Olfr169) relative to controls. […] The transcript downregulation of 21 out of the 26 olfactory receptor candidates obtained by RNAseq was confirmed by qPCR.

SMILES: CC(=O)c1ccccc1 [acetophenone]
- olfr47 candidate OR (RNAseq) confirmed by qPCR: y
